In US6967212B2, “Substituted azole acid derivatives useful as antidiabetic and antiobesity agents and method” (Bristol-Myers Squibb Company, priority 2001, dated 2005):
Marks after values point to notes of the source that are not given here. Blank lines part the entries; values can stand above or below the compound they belong to.

Columns and labels:
[1] = target: T1, PPARα (Homo sapiens, UniProt Q07869); assay: PPARα dependent SEAP reporter transactivation in HepG2 cells; type: cell-based
T1 construct: HepG2 cells (human liver origin), that express endogenous PPARα gene were stably transfected with a PPAR responsive SEAP reporter gene; endogenous in cells; host or cells: HepG2 cells stably transfected with a PPAR responsive SEAP reporter
T1 sequence (Q07869 1-468): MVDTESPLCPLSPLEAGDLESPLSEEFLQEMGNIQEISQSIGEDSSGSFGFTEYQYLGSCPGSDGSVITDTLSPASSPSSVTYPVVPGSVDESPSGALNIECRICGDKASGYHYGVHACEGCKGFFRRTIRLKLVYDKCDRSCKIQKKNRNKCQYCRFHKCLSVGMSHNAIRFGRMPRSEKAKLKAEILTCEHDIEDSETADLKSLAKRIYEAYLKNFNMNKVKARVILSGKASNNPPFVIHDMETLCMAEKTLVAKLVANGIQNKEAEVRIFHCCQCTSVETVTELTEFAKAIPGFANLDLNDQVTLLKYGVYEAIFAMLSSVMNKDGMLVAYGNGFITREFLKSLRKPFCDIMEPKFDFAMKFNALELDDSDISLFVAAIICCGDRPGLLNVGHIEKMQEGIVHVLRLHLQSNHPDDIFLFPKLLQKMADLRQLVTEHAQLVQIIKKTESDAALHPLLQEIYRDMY
From the text: HepG2 cells (human liver origin), that express endogenous PPARα gene were stably transfected with a PPAR responsive SEAP reporter gene.
Reporter gene constructs were made by inserting either 3 repeats of the rat fatty acid binding protein PPRE including the 7 nucleotides immediately 5′, or 4 repeats of the gal4 response element upstream of the SV40 early minimal promoter of pSEAP2 (Clontech), 3×PPRE-SEAP and gal4-SEAP respectively. The chimeric receptor was made by cloning the cDNA encoding the ligand binding domain of human PPAR α in frame and 3′ to the gal4 DNA binding domain (amino acids 1-47) in the mammalian bicistronic expression vector pIRESlneo (Clontech), gal4-PPAR α. […] Following the incubation, media was removed, and endogenous phosphatases were inactivated as indicated above and SEAP activity in 25 μl aliquots of processed media was assayed in clear bottom, black 96 well plate (Falcon) by the addition of 100 μl Attophos reagent (Promega), incubation for 5 minutes in the dark at room temperature, and measuring the increase in fluorescence (excitation 450 nm, emission 580 nm) in a CytoFluor series 4000 plate reader (Perseptive Biosystems) 8 cycles, 1 minute/cycle. The relative rates of fluorescence emission were calculated as fold increase over DMSO control. […] The ED50 values were calculated using standard equations for mid-point of the activity curves.

[2] = target: PPARγ (Chlorocebus sabaeus, UniProt A0A0D9RBU3); assay: Inhibition of rosiglitazone induced SEAP reporter transactivation in CV-1 cells; type: cell-based, primate; conditions: read-out: ED50 for inhibition of rosiglitazone induced transactivation of SEAP gene, PPAR responsive SEAP reporter
PPARγ, sequence (A0A0D9RBU3 entry or part of it): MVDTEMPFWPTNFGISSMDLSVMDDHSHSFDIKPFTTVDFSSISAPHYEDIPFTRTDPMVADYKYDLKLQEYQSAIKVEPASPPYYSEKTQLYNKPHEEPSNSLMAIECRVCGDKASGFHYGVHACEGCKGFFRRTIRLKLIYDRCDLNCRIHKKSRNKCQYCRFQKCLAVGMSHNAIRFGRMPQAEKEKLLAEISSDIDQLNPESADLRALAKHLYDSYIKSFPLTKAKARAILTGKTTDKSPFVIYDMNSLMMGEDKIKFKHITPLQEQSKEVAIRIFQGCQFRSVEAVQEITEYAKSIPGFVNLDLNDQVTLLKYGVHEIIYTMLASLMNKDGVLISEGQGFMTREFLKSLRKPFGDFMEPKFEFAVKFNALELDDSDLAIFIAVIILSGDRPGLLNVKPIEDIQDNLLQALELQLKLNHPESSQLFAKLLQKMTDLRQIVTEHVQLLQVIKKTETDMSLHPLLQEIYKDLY
From the text: The established CV-1 cells (primate kidney origin), that show expression of endogenous PPARγ, were stably transfected with a PPAR responsive secreted alkaline phosphatase (SEAP) reporter gene.
CV-1 cells (these cell express endogenous PPARγ gene) were transfected with a 3×PPRE-SEAP reporter gene DNA construct and stable colonies were selected, expanded and tested for responsiveness to compounds using standard protocols. SEAP reporter gene constructs were made by inserting 3 repeats of the rat fatty acid binding protein PPRE including the 7 nucleotides immediately 5′ to the SV40 early minimal promoter of pSEAP2 (Clontech). 1.2×10^6 CV-1/PPRE-SEAP cells were plated in a 96 well plate one day before compound addition. […] 150 μl aliquots of each concentration were delivered to two non-adjacent wells. […] Media was collected in fresh 96 well plates 40 hrs following incubation with compounds and assayed for SEAP activity. […] The plate was incubated for 5′ in the dark, and then the fluorescence measured in a CytoFluor series 4000 plate reader (Perseptive Biosystems): excitation filter, 450/50 nm; emission filter, 580/50 nm; 8 cycles, 1 minute/cycle, 3 reads/well/cycle. […] The ED50 values were calculated using standard equations for mid-point of the activity inhibition curves.

[3] = target: T2, human PPARγ ligand binding domain (Homo sapiens, UniProt P37231); assay: PPARγ ligand binding study with purified ligand binding domain; conditions: competition with labeled PPARγ ligand BMS-compound A
T2 sequence (P37231 238-503 limits assumed): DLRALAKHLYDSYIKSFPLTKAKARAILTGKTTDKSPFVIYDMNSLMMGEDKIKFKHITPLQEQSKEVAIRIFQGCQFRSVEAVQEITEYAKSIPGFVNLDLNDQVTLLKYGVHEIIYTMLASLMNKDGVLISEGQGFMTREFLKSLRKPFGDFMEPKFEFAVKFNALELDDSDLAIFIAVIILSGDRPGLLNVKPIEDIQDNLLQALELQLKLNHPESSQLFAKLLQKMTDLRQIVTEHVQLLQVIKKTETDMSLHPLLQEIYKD
From the text: Compound Y is a compound synthesized by the scheme outlined in Example 1 herein.

[4] = tested on: obese diabetic db/db mice; assay: Plasma glucose and lipids in treated obese diabetic db/db mice; type: in vivo; conditions: 3 mg/kg/day
From the text: As illustrated in Table 3 treatment of obese diabetic db/db mice with the dual PPARγ antagonist/PPARα agonist Compound Y results in no significant change in plasma glucose and a significant decrease in plasma triglycerides and free fatty acids levels. As indicated before, changes in lipid and glycemic conditions are two significant potential concerns of reducing PPARγ activity. Based on the study described here it is concluded that obese mammals can be safely treated with a dual PPARγ antagonist/PPARα agonist. The reduction in plasma triglycerides and free fatty acids are likely due to the […] activity of Compound Y.

[5] = tested on: Gene expression in WAT; assay: Gene expression profiling of white adipose tissue of treated db/db mice; type: in vivo; conditions: obese diabetic db/db mice
From the text: Examples of such genes include adipophilin and keratinocyte fatty acid binding protein, the gene products of these genes are involved in intracellular fatty acid trafficking).
Adipose (fat) tissue is a major place of synthesis of PAI-1, a risk factor for thrombosis, angiotensinogen precursor, a risk factor for hypertension and renin, a risk factor for hypertension (see Ahima and Flier, TEM, 11: 327-332, 2000).

[6] = target: T3, human PPARα ligand binding domain (Homo sapiens, UniProt Q07869); assay: PPARα ligand binding study with purified ligand binding domain; conditions: competition with labeled PPARα ligand BMS-compound B
T3 sequence (Q07869 239-466 limits assumed): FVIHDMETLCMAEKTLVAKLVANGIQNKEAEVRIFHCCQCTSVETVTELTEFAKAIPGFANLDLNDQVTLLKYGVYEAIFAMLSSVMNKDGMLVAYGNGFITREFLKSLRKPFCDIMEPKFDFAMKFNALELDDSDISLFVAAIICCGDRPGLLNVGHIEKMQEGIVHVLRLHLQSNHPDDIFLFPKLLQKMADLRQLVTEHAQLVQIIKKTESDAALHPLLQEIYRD
From the text: FIG. 1B: Illustrates the binding of a labeled authentic PPARα ligand (BMS-compound B) to human PPARα binding domain.
Compound Y is a compound synthesized by the scheme outlined in Example 1 herein. […] The in vitro ligand binding studies with purified ligand binding domain thus show the ability of Compound Y to bind potently to both PPARγ and PPARα. It is however, well known for the nuclear hormone receptor family of transcription factors that (PPARs are members of this family) that a compound which potently binds to (i.e. a ligand) can act as an agonist (ligand which activates) and an antagonist (ligand which inactivates the receptor).

[7] = tested on: diet induced obese mice; assay: Diet induced obese mice: body composition, plasma and liver parameters; type: in vivo
From the text: As indicated before, changes in lipid and glycemic conditions are two potential concerns of reducing PPARγ activity. Based on the study described here it is concluded that safe reduction of fat mass in an obese diabetic mammal (including human) is possible through administration of a dual PPARγ antagonist/PPARα agonist. This feature is in contrast to the observed hyperlipidemia and hyperglycemia in lipodystrophic patients and in patients with severe mutations in PPARγ gene.
In obese mice, as in obese human, the liver lipid level is elevated. Often, this is accompanied by an increase in plasma liver enzyme ALT level indicating to liver damage. Upon treatment with dual PPARγ antagonist/PPARα agonist Compound Y there was a substantial reduction in liver triglyceride content, although not reaching statistical significance, which was accompanied by a significant reduction in plasma liver enzyme ALT levels. Both these changes are indicative of improvement in liver function as a result of stimulation of PPARα mediated fatty acid oxidation and reduction of lipid synthesis leading to reduced lipid content (see. Torra et al., Current Opinion in Lipidology, 10: 151-159, 1999; Kersten et al., Nature, 405: 421424, 2000).
C57BL/6 mice were fed a diet rich in fat (40%) and sucrose (40%) (see, York {Genetic models of obesity} and Sclafani {Dietary models of obesity}, both in Obesity, Bjorntorp and Brodoff eds. JB Lippincott Company, 1992; McIntosh and Pederson; McNeill. eds. CRC press LLC, 337-398, 1999; Farrelly et al., Proc. Natl. Acad. Sci. 96: 14511-14516, 1999). Under these dietary conditions, C57BL/6 mice gain considerable body weight and become obese. These mice were treated with a dual PPARγ antagonist/PPARα agonist (dose 0.01 to 100 mg/kg/day), administered in a pharmacologically acceptable vehicle (such as but not limited to, 5% CM-cellulose) through orally, intravenous, subcutaneous or intraportal injection, or mixed with food or water, acutely or over an extended period of time. During the course of the study, various parameters such as water and food consumption, body weight gain, body composition by dual emission X-ray analyzer (DEXA, this instrument accurately measures body fat mass, body lean muscle mass and body bone mineral content), body temperature was measured by standard methods. Through tail vein bleeding, blood was collected in heparin-EDTA coated tubes to prevent clotting and blood plasma was separated and analyzed for glucose, free fatty acids, triglycerides and cholesterol using reagent kits available from Roche Diagnostics in a COBAS-MIRA instrument. Insulin and leptin are measured by commercially available ELISA kits. Compounds that act to reduce body weight and or decrease glucose were selected. At the end of the treatment period animals were euthanized by brief exposure to CO2 and internal organs such as liver and white adipose tissue were harvested for additional analysis. These analyses may include, but not limited to, determination of lipid content, and effect on various PPARγ and PPARα target gene expression.

[8] = tested on: mouse 3T3-L1 pre-adipocytes; assay: Inhibition of rosiglitazone induced differentiation of 3T3-L1 pre-adipocytes (glycerol release); type: cell-based; conditions: rosiglitazone induced differentiation of 3T3-L1 cells
Method: PPARγ has been considered a major trigger for the adipocyte differentiation process (see Tontonoz et al., Current Biology, 571-576, 1995).
5×10^5 3T3-L1 cells per plate were added to 96 well plates and cultured in DMEM-high glucose and 10% FBS medium for two days, before induction. Cells were induced for 48 hr with 1 μm dexamethasone, 5 μg/ml insulin, and […] isobutylmethylxanthine (IBMX) in the same medium. […] After a total of 5 days incubation, 4 μl of media from each well were collected and diluted into 40 μl of H2O in 96 well ELISA plate, 300 μl of Triglycerides Blank Reagent (Bayer Diagnostics) was added into each well and incubated for 5 min at room temperature. […] The ED50 values were calculated using standard equations for mid-point of the activity inhibition curves.

[9] = 10 mg/kg/day once a day, 3 weeks
[10] = 10 mg/kg/day, 3 weeks, P < 0.05
[11] = 3 weeks at 10 mg/kg/day, once a day

Compound: BMS-250773 [reference compound]
EC50 [1]: 63 nM

Compound: Cc1oc(-c2ccccc2)nc1CCOc1cccc(Cc2nn(-c3ccccc3)nc2C(=O)O)c1 [Compound Y]
EC50 [2]: 1500 nM
IC50 [3]: 69 nM
EC50 [1]: 587 nM
Free fatty acids [4]: 0.76 ± 0.12 meq/L
Glucose [4]: 683.0 ± 25.2 mg/dL
Glucose, change versus vehicle [4]: −13%
Triglyceride [4]: 145.3 ± 12.5 mg/dL
Free fatty acids, change versus vehicle ([4]; p < 0.05): −36%*
Triglyceride, change versus vehicle ([4]; p < 0.05): −45%*
Adipophilin gene expression in WAT [5]: 4.1
Angiotensinogen precursor gene expression in WAT [5]: 0.46
Glycerol-3 PO4 dehydrogenase gene expression in WAT [5]: 0.39
HMGic gene expression in WAT [5]: 2.2
Keratinocyte fatty acid binding protein gene expression in WAT [5]: 3.3
PAI-1 gene expression in WAT [5]: 0.45
IC50 [6]: 69 nM
plasma lipid (free fatty acids, triglycerides and cholesterol) and glycemic (glucose and insulin) parameters (in words) [7]: very little change
Liver triglycerides ([7]; 10 mg/kg/day): 55.4 ± 7.0 mg/g
% Fat body mass [7, 9]: 41.5 ± 1.8%
% Lean body mass [7, 9]: 56.0 ± 1.8%
% Fat body mass, change versus vehicle [7, 10]: (−12%)*
% Lean body mass, change versus vehicle [7, 10]: (+11%)*
ALT, change versus vehicle ([7]; 10 mg/kg/day, P < 0.05): (−38%)*
Liver triglycerides, change versus vehicle ([7]; 10 mg/kg/day, not statistically significant): (−24%)
body weight (in words) [7, 11]: no significant reduction in body weight
increase in lean body mass [7, 11]: 14%
reduction of body fat mass [7, 11]: 15%
ALT ([7]; plasma, 10 mg/kg/day): 98.0 ± 12.6 IU/L
Cholesterol ([7]; plasma, 10 mg/kg/day): 270.4 ± 9.4 mg/dL
Glucose ([7]; plasma, 10 mg/kg/day): 260.7 ± 12.3 mg/dL
Insulin ([7]; plasma, 10 mg/kg/day): 8.2 ± 1.2 ng/mL
Triglyceride ([7]; plasma, 10 mg/kg/day): 105.5 ± 8.1 mg/dL
ED50 for inhibition of differentiation [8]: 9.9 µM

Compound: CN(CCOc1ccc(CC2SC(=O)NC2=O)cc1)c1ccccn1 (stereo not drawn) [rosiglitazone, reference compound]
G-protein coupled receptor 26 gene expression in WAT [5]: 4.3
Renin gene expression in WAT [5]: 13.9

More lines, main results first:

IC50 [3]: 280 nM
Compound: CCCCCCCC1SC(CC(=O)N(Cc2ccccc2)Cc2ccccc2)C(=O)N1CCCCc1ccc(C(=O)O)cc1 (stereo not drawn) [GW0072, reference compound]
ED50 for inhibition of differentiation [8]: 0.585 µM

IC50 [6]: 410 nM
Compound: CCCCCCCN(CCc1ccc(O[C@@](C)(CC)C(=O)O)cc1)C(=O)Nc1ccc(F)cc1F [GW-2331, reference compound]
